Test results reported in PMC10610545, “Preclinical Evaluation of an Imidazole-Linked Heterocycle for Alzheimer’s Disease” (Pharmaceutics, 2023).

Assay: Metabolic stability in human liver microsomes
Type: in vitro ADME
Description: The objective of this study was to evaluate the metabolic stability of LSL33 and its depletion rate in the presence of HLM. This was achieved by incubating LSL33 with microsomes and monitoring parent disappearance using LC/MSMS (Table S6).
Metabolic stability of LSL33 in human liver microsomes
The reaction was initiated by adding HLM (1 mg/mL) to an equal volume of buffer solution containing the test compound and cofactors at the proper concentrations. Reactions without NADPH were also incubated to rule out non-NADPH metabolism or chemical instability in the […]
incubation course. All reactions were terminated using 60 µL of ice-cold acetonitrile at 0, 5, 15, […]
30, 45, and 60 min. […] All experiments were conducted in triplicate. Samples were monitored to parent compound disappearance by LC-MS in MRM mode according to a quantitation method for each compound.
LSL33 was dissolved in DMSO at 0.5 mg/mL. Assay conditions, total incubation volume 400 µL, protein concentration 1 mg/mL, NADPH, 1.3 mM. Preparation of reagents: Test compound, the final concentration in the assay. […]
prepared by dissolving appropriate amount of N ADPH in 100 mM potassium phosphate buffer. […]
from Sigma-Aldrich, Germany. The equipment needed for the study was Beckman Coulter […]
injector, Api4000 Mass Spectrometer.
Bio-Analysis: Samples were monitored for parent compound disappearance by LC-MS in MRM mode according to a previously verified quantitation method for each compound.
Data Analysis: The peak area of analyte was used to calculate the percentage of remaining compound at each incubation time (Table S7). The natural logarithm of the percentage of reamining LSL33 was plotted versus incubation time to calculate the half -life using the following […]
time) see Table S8 and Figure S11 . Intrinsic clearance was determined by the following equation:
CLint H = Ln 2/t1/2 (min) x volume incubation (mL)/microsomal protein (mg) x 45 (MPPGL) 1500 g human liver/ 70 Kg human body weight. Units for CL int are usually expressed as mL/min/mg microsomal protein (table S8), MPPGL = referred to as mg microsomal protein per gram liver.
The categories classification
Table S6. Summary of LC-MS conditions
Ionization Mode Electrospray positive
Sample matrix Microsomes+ NADPH + buffer […]
Mobile phase [Water: Acetonitrile :0.1% Formic Acid]

SMILES: Cl.c1ccc2sc(-c3ncc[nH]3)cc2c1 [LSL33, 2-(Benzo[b]thiophene-2-yl)-1H-imidazole hydrochloride]
- hepatic clearance category (HLM intrinsic clearance bands): high
- % Compound Remaining (HLM, minus NADPH, 0 min): 100.0 ± 10.2%
- % Compound Remaining (HLM, minus NADPH, 60 min): 96.6 ± 9.0%
- % Compound Remaining (HLM, plus NADPH, 0 min): 100.0±9.0%
- % Compound Remaining (HLM, plus NADPH, 5 min): 4.6 ± 0.4%
- % Compound Remaining (HLM, plus NADPH, 15 min): 0.1 ± 0.1%
- % Compound Remaining (HLM, plus NADPH, 30 min): 0.2 ± 0.1%
- % Compound Remaining (HLM, plus NADPH, 45 min): 1.3 ± 0.2%
- % Compound Remaining (HLM, plus NADPH, 60 min): 0.2 ± 0.3%
- half-life (human, human liver microsomes, HLM): 1.58 min
